Experimental findings from patent US9266834B2, “1, 4-disubstituted 3-cyano-pyridone derivatives and their use as positive allosteric modulators of MGLUR2-receptors” (JANSSEN PHARMACEUTICALS, INC., priority 2006, dated 2016) are described below.

Molecules are shown by their SMILES.

T1 sequence (Q14416 19-872): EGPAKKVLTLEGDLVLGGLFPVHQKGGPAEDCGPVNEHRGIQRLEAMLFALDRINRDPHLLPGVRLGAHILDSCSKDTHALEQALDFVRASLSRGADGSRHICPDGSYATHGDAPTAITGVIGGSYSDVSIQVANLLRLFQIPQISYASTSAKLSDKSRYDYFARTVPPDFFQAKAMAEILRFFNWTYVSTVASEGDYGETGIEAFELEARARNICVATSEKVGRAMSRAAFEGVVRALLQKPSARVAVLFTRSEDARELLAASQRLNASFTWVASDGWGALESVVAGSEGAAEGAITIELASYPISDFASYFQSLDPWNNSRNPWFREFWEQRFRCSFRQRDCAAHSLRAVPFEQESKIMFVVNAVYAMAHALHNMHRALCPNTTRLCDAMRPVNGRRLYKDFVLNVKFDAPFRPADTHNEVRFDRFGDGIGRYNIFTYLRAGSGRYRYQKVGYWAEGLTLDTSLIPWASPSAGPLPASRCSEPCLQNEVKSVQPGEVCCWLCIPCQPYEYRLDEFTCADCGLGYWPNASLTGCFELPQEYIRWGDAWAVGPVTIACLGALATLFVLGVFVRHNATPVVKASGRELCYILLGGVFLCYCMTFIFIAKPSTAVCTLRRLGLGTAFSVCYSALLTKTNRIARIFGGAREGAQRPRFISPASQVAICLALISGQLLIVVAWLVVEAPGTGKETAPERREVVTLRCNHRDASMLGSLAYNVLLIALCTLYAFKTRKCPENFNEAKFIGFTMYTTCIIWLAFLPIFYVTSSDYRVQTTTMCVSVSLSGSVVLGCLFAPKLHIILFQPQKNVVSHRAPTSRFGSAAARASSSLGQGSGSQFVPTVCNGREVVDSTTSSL

The first test concerns the target T1, human mGluR2 receptor (Homo sapiens, UniProt Q14416).
T1 construct: expressed in transfected cells; host or cells: CHO cells (membrane preparation)
Briefly: [35S]GTPγS binding assay (GTPγS-PAM): positive allosteric modulation in presence of glutamate at EC25, membranes from transfected CHO cells. Type of test: biochemical. The following applies: in presence of mGluR2 agonist glutamate at predetermined EC25 concentration, averages of duplicate values of 11-concentration response curves. From the text:
The compounds provided in the present invention are positive allosteric modulators of mGluR2. These compounds appear to potentiate glutamate responses by binding to an allosteric site other than the glutamate binding site. The response of mGluR2 to a concentration of glutamate is increased when compounds of Formula (I) are present. Compounds of Formula (I) are expected to have their effect substantially at mGluR2 by virtue of their ability to enhance the function of the receptor. The behaviour of positive allosteric modulators tested at mGluR2 using the [^35S]GTPγS binding assay method described below and which is suitable for the identification of such compounds, and more particularly the compounds according to Formula (I), are shown in Table 4.
[^35S]GTPγS Binding Assay
The [^35S]GTPγS binding is a functional membrane-based assay used to study G-protein coupled receptor (GPCR) function whereby incorporation of a non-hydrolysable form of GTP, [^35S]GTPγS (guanosine 5′-triphosphate, labelled with […] ^35S), is measured. The G-protein o subunit catalyzes the exchange of guanosine 5′-diphosphate (GDP) by guanosine triphosphate (GTP) and on activation of the GPCR by an agonist, [^35S]GTPγS, becomes incorporated and cannot be cleaved to continue the exchange cycle (Harper (1998) Current Protocols in Pharmacology 2.6.1-10, John Wiley & Sons, Inc.). […] Here we describe the use of the [^35S]GTPγS binding assay using membranes from cells transfected with the human mGluR2 receptor and adapted from Schaffhauser et al ((2003) Molecular Pharmacology 4:798-810) for the detection of the positive allosteric modulation (PAM) properties of the compounds of this invention.
CHO-cells were cultured to pre-confluence and stimulated with 5 mM butyrate for 24 hours, prior to washing in PBS, and then collection by scraping in homogenisation buffer (50 mM Tris-HCl buffer, pH 7.4, 4° C.). Cell lysates were homogenized briefly (15 s) using an ultra-turrax homogenizer. The homogenate was centrifuged at 23 500×g for 10 minutes and the supernatant discarded. The pellet was resuspended in 5 mM Tris-HCl, pH 7.4 and centrifuged again (30 000×g, 20 min, 4° C.). The final pellet was resuspended in 50 mM HEPES, pH 7.4 and stored at −80° C. in appropriate aliquots before use. Protein concentration was determined by the Bradford method (Bio-Rad, USA) with bovine serum albumin as standard.
Measurement of mGluR2 positive allosteric modulators in membranes containing human mGluR2 was performed using frozen membranes that were thawed and briefly homogenised prior to pre-incubation in 96-well microplates (15 μg/assay well, 30 minutes, 30° C.) in assay buffer (50 mM HEPES pH 7.4, 100 mM NaCl, 3 mM MgCl2, 50 μM GDP, 10 μg/ml saponin,) with increasing concentrations of positive allosteric modulator (from 0.3 nM to 50 μM) and either a minimal pre-determined concentration of glutamate (PAM assay), or no added glutamate. For the PAM assay, membranes were pre-incubated with glutamate at EC25 concentration, i.e. a concentration that gives 25% of the maximal response glutamate, and is in accordance to published data (Pin et al. (1999) Eur. J. Pharmacol. 375:277-294). After addition of [^35S]GTPγS (0.1 nM, f.c.) to achieve a total reaction volume of 200 μl, microplates were shaken briefly and further incubated to allow [^35S]GTPγS incorporation on activation (30 minutes, 30° C.). The reaction was stopped by rapid vacuum filtration over glass-fibre filter plates (Unifilter 96-well GF/B filter plates, Perkin-Elmer, Downers Grove, USA) microplate using a 96-well plate cell harvester (Filtermate, Perkin-Elmer, USA), and then by washing three times with 300 μl of ice-cold wash buffer (Na2PO4.2H2O 10 mM, NaH2PO4.H2O 10 mM, pH=7.4). Filters were then air-dried, and 40 μl of liquid scintillation cocktail (Microscint-O) was added to each well, and membrane-bound [^35S]GTPγS was measured in a 96-well scintillation plate reader (Top-Count, Perkin-Elmer, USA). […]
`CCCCn1ccc(N2CCN(c3nc(C)cc(C)n3)CC2)c(C#N)c1=O` [2-005]: the “GTPgS - hR2 PAM pEC50” value is listed as 6.2.

The same test, now with this note: in presence of mGluR2 agonist glutamate at predetermined EC25 concentration, averages of duplicate values of 11-concentration response curves, read-out: GTPgS - hR2 PAM pEC50 (converted).
Regarding `CC(C)CCn1ccc(OCc2ccc(SC(F)(F)F)cc2)c(C#N)c1=O` [1-287], the EC50 was 63.1 nM.

For the compound `CC(C)CCn1ccc(OCc2ccc(OCc3ccccc3)cc2)c(C#N)c1=O` [1-289], the EC50 was 79.4 nM.

On to `CC(C)CCn1ccc(Oc2ccc(N3CCCC3)cc2)c(C#N)c1=O` [1-291], for which the EC50 is 501 nM.

Take `N#Cc1c(Nc2ccc(Oc3ccncc3)cc2)ccn(CC2CC2)c1=O` [1-295]: the EC50 was 3980 nM.

`CCCCn1ccc(N[C@H]2CC[C@H](c3ccccc3)CC2)c(C#N)c1=O` [1-297]: the EC50 was 200 nM.

On to `CC(C)CCn1ccc(Nc2ccccc2)c(C#N)c1=O` [1-298], for which the EC50 is 3980 nM.

For the compound `CC(C)CCn1ccc(Nc2ccc(N3CCOCC3)cc2)c(C#N)c1=O` [1-300], the EC50 is 2000 nM.

In the case of `CC(C)CCn1ccc(Nc2ccc(Oc3ccccc3)cc2)c(C#N)c1=O` [1-301], the EC50 was 200 nM.

On to `CC(C)CCn1ccc(Nc2ccc(Oc3ccncc3)cc2)c(C#N)c1=O` [1-302], for which the EC50 was 1260 nM.

For the compound `CC(C)CCn1ccc(N(C)Cc2ccccc2)c(C#N)c1=O` [1-303], the EC50 was 3160 nM.

Turning to `CCCCn1ccc(OCc2ccc(-c3cccc(C)n3)cc2)c(C#N)c1=O` [1-306], the EC50 was 3980 nM.

`CCCCn1ccc(N2CCN(c3ccccn3)CC2)c(C#N)c1=O` [2-004]: the EC50 is 2000 nM.

Take `CCCCn1ccc(N2CCN(c3ncc(C4CC4)cn3)CC2)c(C#N)c1=O` [2-006]: the EC50 is 158 nM.

For `CCCCn1ccc(N2CCN(c3nccc(OC)n3)CC2)c(C#N)c1=O` [2-007], the EC50 was 1000 nM.

As for `CCCCn1ccc(N2CCN(c3nccc(NCC)n3)CC2)c(C#N)c1=O` [2-008], the EC50 was 1580 nM.

For the compound `CCCCn1ccc(N2CCN(c3cnc(N4CCOCC4)nc3)CC2)c(C#N)c1=O` [2-009], the EC50 was 6310 nM.

Take `CC(C)CCn1ccc(N2CCN(c3ccccc3)CC2)c(C#N)c1=O` [2-011]: the EC50 is 501 nM.

`COc1ccc(N2CCN(c3ccn(CCC(C)C)c(=O)c3C#N)CC2)cc1` [2-013]: the EC50 was 794 nM.

Take `CC(C)CCn1ccc(N2CCN(Cc3cccc(C(F)(F)F)c3)CC2)c(C#N)c1=O` [2-014]: the EC50 is 794 nM.

For `CC(C)CCn1ccc(N2CCN(Cc3ccc(F)c(F)c3)CC2)c(C#N)c1=O` [2-015], the EC50 is 1260 nM.

In the case of `CC(C)CCn1ccc(N2CCN(Cc3ccc4c(c3)OCO4)CC2)c(C#N)c1=O` [2-016], the EC50 was 631 nM.

`CC(C)CCn1ccc(N2CCN(CCc3ccccc3)CC2)c(C#N)c1=O` [2-017]: the EC50 was 200 nM.

Turning to `CC(C)CCn1ccc(N2CCN(C/C=C/c3ccccc3)CC2)c(C#N)c1=O` [2-018], the EC50 is 2510 nM.

In the case of `CC(C)CCn1ccc(N2CCN(CCOc3ccc(F)cc3)CC2)c(C#N)c1=O` [2-019], the EC50 was 6310 nM.

With `CC(C)CCn1ccc(N2CCN(CCOc3cccc(C(F)(F)F)c3)CC2)c(C#N)c1=O` [2-020], the EC50 is 794 nM.

Consider `CC(C)CCn1ccc(N2CCN(Cc3ccccc3)CC2C)c(C#N)c1=O` (stereo not drawn) [2-021], for which the EC50 was 1260 nM.

Regarding `CC(C)CCn1ccc(N2CCN(c3ccccn3)CC2)c(C#N)c1=O` [2-024], the EC50 is 2000 nM.

Consider `Cc1ccc(N2CCN(c3ccn(CCC(C)C)c(=O)c3C#N)CC2)nc1` [2-025], for which the EC50 was 794 nM.

For `CC(C)CCn1ccc(N2CCN(c3ccc(C#N)cn3)CC2)c(C#N)c1=O` [2-027], the EC50 is 6310 nM.

As for `CC(C)CCn1ccc(N2CCN(c3ncccn3)CC2)c(C#N)c1=O` [2-028], the EC50 is 794 nM.

As to `CC(C)CCn1ccc(N2CCN(c3ccc(-c4ccccc4)nn3)CC2)c(C#N)c1=O` [2-033], the EC50 is 2000 nM.

Consider `Cc1nnc(N2CCN(c3ccn(CCC(C)C)c(=O)c3C#N)CC2)c2ccccc12` [2-034], for which the EC50 was 3980 nM.

In the case of `C[C@@H]1CN(c2ccn(CC3CC3)c(=O)c2C#N)C[C@H](C)N1c1ncccn1` [2-041], the EC50 is 3160 nM.

Take `N#Cc1c(N2CCN(Cc3ccccc3)CC2)ccn(Cc2ccc(OC(F)(F)F)cc2)c1=O` [2-042]: the EC50 was 631 nM.

Consider `CC1CN(Cc2cc(F)cc(F)c2)CCN1c1ccn(Cc2ccc(OC(F)(F)F)cc2)c(=O)c1C#N` (stereo not drawn) [2-045], for which the EC50 is 501 nM.

For the compound `N#Cc1c(N2CCN(Cc3ccncc3)CC2)ccn(Cc2ccc(OC(F)(F)F)cc2)c1=O` [2-047], the EC50 is 5010 nM.

Take `N#Cc1c(N2CCN(Cc3ccccc3)CC2)ccn(Cc2ccc(F)cc2)c1=O` [2-049]: the EC50 was 1580 nM.

On to `N#Cc1c(N2CCN(Cc3cccc(F)c3)CC2)ccn(Cc2ccc(F)cc2)c1=O` [2-050], for which the EC50 was 2510 nM.

Turning to `N#Cc1c(N2CCN(Cc3cc(F)cc(F)c3)CC2)ccn(Cc2ccc(F)cc2)c1=O` [2-052], the EC50 is 3980 nM.

Turning to `N#Cc1c(N2CCN(Cc3ccccc3)CC2)ccn(CCOc2ccccc2)c1=O` [2-053], the EC50 is 631 nM.

In the case of `N#Cc1c(N2CCN(Cc3ccccc3)CC2)ccn(CCOCc2ccccc2)c1=O` [2-054], the EC50 was 5010 nM.

Consider `N#Cc1c(N2CCN(c3ccccn3)CC2)ccn(Cc2ccc(F)cc2)c1=O` [2-055], for which the EC50 was 3980 nM.

Take `CCCCn1ccc(OC2CCN(Cc3cccc(C(F)(F)F)c3)CC2)c(C#N)c1=O` [3-002]: the EC50 was 1260 nM.

On to `CC(C)CCn1ccc(OC2CCN(Cc3cccc(C(F)(F)F)c3)CC2)c(C#N)c1=O` [3-008], for which the EC50 is 316 nM.

On to `N#Cc1c(OC2CCN(Cc3cccc(C(F)(F)F)c3)CC2)ccn(CC2CC2)c1=O` [3-012], for which the EC50 is 1260 nM.

On to `CC(C)CCn1ccc(C2CCN(Cc3cccc(C(F)(F)F)c3)CC2)c(C#N)c1=O` [3-014], for which the EC50 was 200 nM.

Turning to `CCCCn1ccc(N2CCC(c3ccccn3)CC2)c(C#N)c1=O` [4-001], the EC50 was 2000 nM.

Turning to `CCCCn1ccc(N2CCC(c3cccnc3)CC2)c(C#N)c1=O` [4-002], the EC50 is 3980 nM.

As to `CCCCn1ccc(N2CCC(Oc3ccccn3)CC2)c(C#N)c1=O` [4-005], the EC50 is 501 nM.

For the compound `CCCCn1ccc(N2CCC(COc3ccccn3)CC2)c(C#N)c1=O` [4-006], the EC50 is 501 nM.

Consider `CCCCn1ccc(N2CCC(COc3cccnc3)CC2)c(C#N)c1=O` [4-007], for which the EC50 was 1580 nM.

With `CCCCn1ccc(N2CCC(CCOc3cccnc3)CC2)c(C#N)c1=O` [4-008], the EC50 is 1580 nM.

As for `CCCCn1ccc(N2CCC(Oc3ccc(C#N)cc3)CC2)c(C#N)c1=O` [4-009], the EC50 was 501 nM.

As to `CC(C)CCn1ccc(N2CCC(C(F)(F)F)CC2)c(C#N)c1=O` [4-010], the EC50 is 2000 nM.

For the compound `CC(C)CCn1ccc(N2CCCC(c3ccccc3)C2)c(C#N)c1=O` (stereo not drawn) [4-013], the EC50 is 2000 nM.

As to `CC(C)CCn1ccc(N2CCC(c3ccccc3)CC2)c(C#N)c1=O` [4-014], the EC50 is 63.1 nM.

With `CC(C)CCn1ccc(N2CCC(Cc3ccccc3)CC2)c(C#N)c1=O` [4-015], the EC50 was 100 nM.

In the case of `Cc1ccc(OC2CCN(c3ccn(CCC(C)C)c(=O)c3C#N)CC2)cc1` [4-017], the EC50 was 126 nM.

In the case of `CC(C)CCn1ccc(N2CCC(Oc3ccc(F)cc3)CC2)c(C#N)c1=O` [4-018], the EC50 was 501 nM.
